System: participants with SSc-RP
Assay: Frequency of weekly symptomatic RP attacks (patient diary), Phase 2a Part A
Format: in vivo, human
Protocol: Part A—Double-blind, Placebo-controlled, Parallel-group, Dose selection, will assess the safety and efficacy of two doses of cilnidipine (10 mg and 20 mg), alone and in combination with tadalafil. A total of 36 participants will be randomized to one of six pre-specified treatment arms. See Example 3 for data obtained in this phase of the study thus far, on 11 participants.
Please refer to FIG. 1 for treatment arms in Part A of the study. Dosing lasted or will last for 12 (±2) days in which participants self-administered or will self-administer daily doses of assigned treatment in the morning. Each participant took or will take one capsule and one tablet to blind the active therapy being received.
The relevant metrics measured by this tool daily are: • Study medication • SSc-RP symptoms (Reporting an attack including duration of attack) • Severity of the attack considering all symptoms of the attack e.g. tingling, numbness, pain, color changes (VAS 0-10 cm scale) • Participant's location at the time of the attack (inside home/outside home) • Selecting symptoms experienced during the attack (tingling, numbness, pain, color changes, other) • Pain rating during the attack (11-point Likert scale) • The RCS based on how much difficulty participants had with Raynaud's today, how many attacks the participant had, and how long they lasted. Participants will also be asked to consider how much pain, numbness, or other symptoms the Raynaud's caused in fingers (including painful sores), and how much the Raynaud's alone affected the use of hands today (VAS 0-10 cm scale).
Percent change from baseline evaluation for frequency of weekly RP attacks were or will be used as the primary efficacy variable. The sponsor-developed participant-informed diary will be used to record data. Frequency of weekly RP attacks is defined as the total number of RP attacks divided by the number of days with available diary data within the last 7 days of each dosing period then multiplied by 7. Total number of RP attacks during the last 7 days of screening period divided by the number of days with available data then multiplied by 7 will be used as baseline for the analysis of all periods.
Percentage change={(weekly RP attacks for the last 7 days of each dosing period−Baseline weekly RP attacks)/Baseline weekly RP attacks}*100%.
Absolute change=weekly RP attacks for the last 7 days of each dosing period−Baseline weekly RP attacks
Percent change from baseline evaluation for frequency of weekly RP attacks was and will be the primary efficacy endpoint. Frequency of weekly RP attacks is defined as the total number of RP attacks divided by the number of days with available diary data within the last 7 days of each dosing period then multiplied by 7. Total number of RP attacks during the last 7 days of screening period divided by the number of days with available data then multiplied by 7 will be used as baseline for the analysis of all periods.
The following data was actually obtained in accordance with the protocol and plan delineated in Examples 1 and 2. The accompanying data involved 11 patients out of the planned 76 patient study. The study was done in patients with scleroderma (systemic sclerosis) who had relatively frequent Raynaud symptoms as they needed to average at least one attack per day during a screening period of up to two weeks. In this first phase of this double-blind placebo-controlled, prospective randomized study, patients were treated in parallel and after meeting study criteria were randomized to receive either placebo, cilnidipine 10 mg daily, cilnidipine 20 mg daily, tadalafil 5 mg daily, cilnidipine 10 mg plus 5 mg of tadalafil, or cilnidipine 20 mg plus 5 mg of tadalafil.

[1] = Table A-1, ITT Part A, last 7 days of dosing period, listed as Cilnidipine 10 mg
[2] = Table A-1, ITT Part A, last 7 days of dosing period, listed as Cilnidipine 20 mg
[3] = Table A-1, ITT Part A, last 7 days of dosing period, listed as Pooled Cilnidipine
[4] = Table A-1, ITT Part A, last 7 days of dosing vs last 7 days of screening
[5] = Table A-1, ITT Part A, last 7 days of dosing vs last 7 days of screening, listed as Cilnidipine 10 mg
[6] = Table A-1, ITT Part A, last 7 days of dosing vs last 7 days of screening, listed as Cilnidipine 20 mg
[7] = Table A-1, ITT Part A, last 7 days of dosing vs last 7 days of screening, listed as Pooled Cilnidipine
[8] = Table A-2, excluding outliers, ITT Part A, last 7 days of dosing period, listed as Cilnidipine 10 mg
[9] = Table A-2, excluding outliers, ITT Part A, last 7 days of dosing period, listed as Cilnidipine 20 mg
[10] = Table A-2, excluding outliers, ITT Part A, last 7 days of dosing period, listed as Pooled Cilnidipine
[11] = Table A-3 by baseline RCS, first sub-table (RCS <5.0), ITT Part A, listed as Cilnidipine 10 mg
[12] = Table A-3 by baseline RCS, first sub-table (RCS <5.0), ITT Part A, listed as Cilnidipine 20 mg
[13] = Table A-3 by baseline RCS, first sub-table (RCS <5.0), ITT Part A, listed as Pooled Cilnidipine
[14] = Table A-1, ITT Part A, last 7 days of dosing period
[15] = Table A-2, excluding outliers, ITT Part A
[16] = Table A-2, excluding outliers, ITT Part A, last 7 days of dosing period
[17] = Table A-3 by baseline RCS, second sub-table (heading not given; RCS >5.0), ITT Part A

COCCOC(=O)C1=C(C)NC(C)=C(C(=O)OC/C=C/c2ccccc2)C1c1cccc([N+](=O)[O-])c1 (centres unmarked) [Cilnidipine, 1,4-dihydro-2,6-dimethyl,4-(3-nitrophenyl)-3,5-pyridinedicarboxylic acid 2-methoxyethyl (2 E)-3-phenyl-2-propenyl ester]
weekly frequency of Raynaud attacks, direction of change (Example 3, first 11 patients of Part A, vs baseline): decrease
Weekly Symptomatic RP Attacks, Max [1]: 14.0, 14.0
Weekly Symptomatic RP Attacks, Mean (SD) [1]: 14.00
Weekly Symptomatic RP Attacks, Min [1]: 14.0, 14.0
Weekly Symptomatic RP Attacks, Q1 [1]: 14.00, 14.00
Weekly Symptomatic RP Attacks, Q3 [1]: 14.00, 14.00
Weekly Symptomatic RP Attacks, Max [2]: 11.0
Weekly Symptomatic RP Attacks, Mean (SD) [2]: 8.00 (4.243)
Weekly Symptomatic RP Attacks, Min [2]: 5.0
Weekly Symptomatic RP Attacks, Q1 [2]: 5.00
Weekly Symptomatic RP Attacks, Q3 [2]: 11.00
Weekly Symptomatic RP Attacks, Max [3]: 14.0
Weekly Symptomatic RP Attacks, Mean (SD) [3]: 10.00 (4.583)
Weekly Symptomatic RP Attacks, Min [3]: 5.0
Weekly Symptomatic RP Attacks, Q1 [3]: 5.00
Weekly Symptomatic RP Attacks, Q3 [3]: 14.00
Weekly Symptomatic RP Attacks Percent Change from Baseline, Min [4]: −33.3, −33.3%
Weekly Symptomatic RP Attacks Change from Baseline, Max [5]: −7.0, −7.0
Weekly Symptomatic RP Attacks Change from Baseline, Mean (SD) [5]: −7.00
Weekly Symptomatic RP Attacks Change from Baseline, Min [5]: −7.0, −7.0
Weekly Symptomatic RP Attacks Change from Baseline, Q1 [5]: −7.00, −7.00
Weekly Symptomatic RP Attacks Change from Baseline, Q3 [5]: −7.00, −7.00
Weekly Symptomatic RP Attacks Percent Change from Baseline, Max [5]: −33.3, −33.3%
Weekly Symptomatic RP Attacks Change from Baseline, Max [6]: −2.0
Weekly Symptomatic RP Attacks Change from Baseline, Mean (SD) [6]: −4.50 (3.536)
Weekly Symptomatic RP Attacks Change from Baseline, Min [6]: −7.0
Weekly Symptomatic RP Attacks Change from Baseline, Q1 [6]: −7.00
Weekly Symptomatic RP Attacks Change from Baseline, Q3 [6]: −2.00
Weekly Symptomatic RP Attacks Percent Change from Baseline, Max [6]: −28.6%
Weekly Symptomatic RP Attacks Percent Change from Baseline, Min [6]: −38.9%
Weekly Symptomatic RP Attacks Change from Baseline, Max [7]: −2.0
Weekly Symptomatic RP Attacks Change from Baseline, Min [7]: −7.0
Weekly Symptomatic RP Attacks Change from Baseline, Q1 [7]: −7.00
Weekly Symptomatic RP Attacks Change from Baseline, Q3 [7]: −2.00
Weekly Symptomatic RP Attacks Percent Change from Baseline, Max [7]: −28.6%
Weekly Symptomatic RP Attacks Percent Change from Baseline, Min [7]: −38.9%
Weekly Symptomatic RP Attacks Percent Change from Baseline, Q3 [7]: −28.57%
Weekly Symptomatic RP Attacks, Max [8]: 14.0, 14.0
Weekly Symptomatic RP Attacks, Mean (SD) [8]: 14.00
Weekly Symptomatic RP Attacks, Min [8]: 14.0, 14.0
Weekly Symptomatic RP Attacks, Q1 [8]: 14.00, 14.00
Weekly Symptomatic RP Attacks, Q3 [8]: 14.00, 14.00
Weekly Symptomatic RP Attacks, Max [9]: 11.0
Weekly Symptomatic RP Attacks, Mean (SD) [9]: 8.00 (4.243)
Weekly Symptomatic RP Attacks, Min [9]: 5.0
Weekly Symptomatic RP Attacks, Q1 [9]: 5.00
Weekly Symptomatic RP Attacks, Q3 [9]: 11.00
Weekly Symptomatic RP Attacks, Max [10]: 14.0
Weekly Symptomatic RP Attacks, Mean (SD) [10]: 10.00 (4.583)
Weekly Symptomatic RP Attacks, Min [10]: 5.0
Weekly Symptomatic RP Attacks, Q1 [10]: 5.00
Weekly Symptomatic RP Attacks, Q3 [10]: 14.00
Weekly Symptomatic RP Attacks Percent Change from Baseline, Min (Table A-3 by baseline RCS, first sub-table (RCS <5.0), ITT Part A): −33.3, −33.3%
Weekly Symptomatic RP Attacks Change from Baseline, Max [11]: −7.0, −7.0
Weekly Symptomatic RP Attacks Change from Baseline, Min [11]: −7.0, −7.0
Weekly Symptomatic RP Attacks Change from Baseline, Q1 [11]: −7.00, −7.00
Weekly Symptomatic RP Attacks Change from Baseline, Q3 [11]: −7.00, −7.00
Weekly Symptomatic RP Attacks Percent Change from Baseline, Max [11]: −33.3, −33.3%
Weekly Symptomatic RP Attacks Change from Baseline, Max [12]: −2.0
Weekly Symptomatic RP Attacks Change from Baseline, Min [12]: −7.0
Weekly Symptomatic RP Attacks Change from Baseline, Q1 [12]: −7.00
Weekly Symptomatic RP Attacks Change from Baseline, Q3 [12]: −2.00
Weekly Symptomatic RP Attacks Percent Change from Baseline, Max [12]: −28.6%
Weekly Symptomatic RP Attacks Percent Change from Baseline, Min [12]: −38.9%
Weekly Symptomatic RP Attacks Percent Change from Baseline, Q3 [12]: −28.57%
Weekly Symptomatic RP Attacks Change from Baseline, Max [13]: −2.0
Weekly Symptomatic RP Attacks Change from Baseline, Min [13]: −7.0
Weekly Symptomatic RP Attacks Change from Baseline, Q1 [13]: −7.00
Weekly Symptomatic RP Attacks Change from Baseline, Q3 [13]: −2.00
Weekly Symptomatic RP Attacks Percent Change from Baseline, Max [13]: −28.6%
Weekly Symptomatic RP Attacks Percent Change from Baseline, Min [13]: −38.9%
Weekly Symptomatic RP Attacks Percent Change from Baseline, Q3 [13]: −28.57%

CN1CC(=O)N2[C@H](c3ccc4c(c3)OCO4)c3[nH]c4ccccc4c3C[C@@H]2C1=O [Tadalafil]
Weekly Symptomatic RP Attacks, Min [14]: 7.0
Weekly Symptomatic RP Attacks, Q1 [14]: 7.00
Weekly Symptomatic RP Attacks Change from Baseline, Mean (SD) [4]: 4.50 (2.121)
Weekly Symptomatic RP Attacks Change from Baseline, Median [4]: 4.50
Weekly Symptomatic RP Attacks Change from Baseline, Min [4]: 3.0
Weekly Symptomatic RP Attacks Change from Baseline, Q1 [4]: 3.00
Weekly Symptomatic RP Attacks Percent Change from Baseline, Max [4]: 75.0%
Weekly Symptomatic RP Attacks Percent Change from Baseline, Q3 [4]: 75.00%
Weekly Symptomatic RP Attacks Change from Baseline, Max [15]: 6.0, 6.0
Weekly Symptomatic RP Attacks Change from Baseline, Q3 [15]: 6.00, 6.00
Weekly Symptomatic RP Attacks Percent Change from Baseline, Min [15]: 50.0, 50.0%
Weekly Symptomatic RP Attacks Percent Change from Baseline, Q1 [15]: 50.00, 50.00%
Weekly Symptomatic RP Attacks, Max [16]: 18.0, 18.0
Weekly Symptomatic RP Attacks, Q3 [16]: 18.00, 18.00
Weekly Symptomatic RP Attacks Change from Baseline, Max [17]: 6.0
Weekly Symptomatic RP Attacks Change from Baseline, Min [17]: 3.0
Weekly Symptomatic RP Attacks Change from Baseline, Q1 [17]: 3.00
Weekly Symptomatic RP Attacks Change from Baseline, Q3 [17]: 6.00
Weekly Symptomatic RP Attacks Percent Change from Baseline, Max [17]: 75.0%
Weekly Symptomatic RP Attacks Percent Change from Baseline, Min [17]: 50.0%
Weekly Symptomatic RP Attacks Percent Change from Baseline, Q1 [17]: 50.00%
Weekly Symptomatic RP Attacks Percent Change from Baseline, Q3 [17]: 75.00%
Weekly Symptomatic RP Attacks, Max [17]: 18.0
Weekly Symptomatic RP Attacks, Min [17]: 7.0
Weekly Symptomatic RP Attacks, Q1 [17]: 7.00
Weekly Symptomatic RP Attacks, Q3 [17]: 18.00

Reference: patent US20240398771A1, “TREATMENT OF SCLERODERMA AND RAYNAUD'S SYNDROME” (Aisa Pharma, Inc., priority 2023, published 2024)
